Values belong to the molecule of their own block, whether it stands above or below them.
Assays:
BMDCs = experiment: Cytokine protein secretion by BMDCs (Luminex); assay type: cell-based, C57BL/6J mice; conditions: Zymd 5 μg/ml, bLP 10 nM; Luminex, n>7, 4h (FIG. 3)
Method: All methods mentioned in this example were carried out as described in the preceding examples. Cells were stimulated with Zymosan depleted (Zymd, 5 μg/ml) from Invivogen (San Diego, CA, USA) or (R)-Pam3CSK4 (bLP, 10 nM) from EMC Microcollections GmbH (Tübingen, Germany). Protein secretion analysis was performed using the supernatants.
To quantify the interleukin and chemokine protein-level after stimulation with huBPI, Zymd, and (R)-Pam CSK4, a multiplex-system was used and determined by using the Luminex® technology (Austin, TX, USA). The cytokines were captured with anti-mouse capture-antibodies and detected by biotinylated antibodies specific for the respective protein (Table 3). Protein concentrations were calculated using a reconstituted standard curve of the analyzed proteins (SM039, #LMC4031, Lot #1438354; Thermo Fisher Scientific; Standard Mix 1a, #EPX010-20603-901, Lot #111709101, eBioscience).

BPI [1] = experiment: MicroScale Thermophoresis (MST) binding of ligands to BPI; parameters: species or system human; conditions: MST, 0.196-6,436 nM Pam3CSK4 (FIG. 5A)
Method: (§1) BPIN (A) and rBPI were labeled with NT647 in PBS pH 7.4 (Monolith NT™ Protein Labeling Kit RED-NHS, NanoTemper Technologies, Munich, Germany). Concentration of labeled protein was determined using the NanoDrop (ThermoScientific, Wilmington, NC, USA) and Bradford assay (Promega, Mannheim, Germany). MST binding experiments were carried out with 5 nM labeled protein in binding buffer (10 mM HEPES pH 7.4, 150 mM NaCl, 0.1% Tween) with 0.196-6,436 nM of Pam3CSK4 (bLP), or 0.61-20,000 nM of LTA SPΔlgt (LTA), or >0.61-20,000 nM WTA SPΔlgt (WTA) at 20%-40% MST power, 20% LED power in premium capillaries on a Monolith NT.115 pico device at 25° C. (NanoTemper Technologies, Munich, Germany). Pam3CSK4, (bLP) was obtained from EMC Microcollections GmbH (Tübingen, Germany), LTA and WTA were prepared as published previously. MST timetraces were recorded, and the temperature jump and thermophoresis or thermophoresis was analyzed. Binding graphs of each independent experiment were normalized to the fraction bound.
(§2) MST was performed as described for example 5. PiLAM and PiLM were ordered from Invivogen (San Diego, CA, USA). BPI binding assays were performed by incubating Streptavidin-coated 96-well plates (Nunc™ Immobilizer™ Streptavidin F96 clear, Thermo Fisher Scientific, Waltham, MA, USA) with LPS biotin (2 μg/ml) in PBS overnight at 23° C. with gentle agitation. After washing with assay buffer (150 mM NaCl, 50 mM HEPES, Sigma Aldrich, Taufkirchen, Germany) containing 0.01% Casein, plates were blocked with 10 g/l BSA (Sigma Aldrich, Taufkirchen, Germany) at 37° C. and washed again. Thereafter, ligands were preincubated with 20 nM BPI in assay buffer containing 1 g/l BSA for 30 min and loaded onto the plates. Bound BPI was detected by murine anti-human BPI monoclonal antibody (Cat.-No. HM2042, Hycult Biotech, Uden, Netherlands) and HRP-conjugated rabbit anti-mouse IgG (Cat.-No. 315-035-048, Dianova, Hamburg, Germany). […] After addition of 1 N HCl, absorbance was measured at 450 nm. Absorbance indicates binding, the higher the absorbance the higher the binding of BPI to the coated well. […]

BPI [2] = biological target: T1, BPI (Homo sapiens, UniProt P17213); experiment: as above; conditions: 5 nM labeled protein, 25° C. (FIGS. 5A, 5C, 8A, 8B)
T1 construct: aa32-487 of the huBPI respectively aa28-483 of muBPI; HA signal peptide (N); made in house; host or cells: HEK293T
T1 sequence (P17213 32-487): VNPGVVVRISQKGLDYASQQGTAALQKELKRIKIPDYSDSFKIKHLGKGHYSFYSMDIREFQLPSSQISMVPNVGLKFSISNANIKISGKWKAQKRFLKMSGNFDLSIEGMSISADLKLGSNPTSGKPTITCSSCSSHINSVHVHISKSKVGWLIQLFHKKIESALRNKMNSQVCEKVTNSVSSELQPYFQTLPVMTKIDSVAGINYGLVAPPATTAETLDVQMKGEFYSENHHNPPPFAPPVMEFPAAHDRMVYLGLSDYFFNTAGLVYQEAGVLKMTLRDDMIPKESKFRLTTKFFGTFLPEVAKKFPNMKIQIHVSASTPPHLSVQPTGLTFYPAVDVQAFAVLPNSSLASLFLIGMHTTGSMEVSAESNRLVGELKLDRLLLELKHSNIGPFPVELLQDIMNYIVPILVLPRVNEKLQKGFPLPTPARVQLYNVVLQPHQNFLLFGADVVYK
Method: as §1, §2

BPI [3] = biological target: T1, BPI; experiment: BPI binding assay on Streptavidin-coated plates (biotinylated LPS or ODN 1826), direct and competitive
Method: FIG. 7 depicts the binding of BPI to TLR ligands. […] Competition of binding was assessed for different variants of CpG ODNs ([…]) and the TLR3 agonist Poly(I:C) in ODN 1826 coated plates.
Streptavidin-coated plates were incubated with biotinylated LPS (n=3). Competition of binding was assessed for lipoarabinomannan as exemplified for phosphatidyl-inositol lipoarabinomannan (PiLAM).
MST was performed as described for example 5. PiLAM and PiLM were ordered from Invivogen (San Diego, CA, USA). BPI binding assays were performed by incubating Streptavidin-coated 96-well plates (Nunc™ Immobilizer™ Streptavidin F96 clear, Thermo Fisher Scientific, Waltham, MA, USA) with LPS biotin (2 μg/ml) in PBS overnight at 23° C. with gentle agitation. After washing with assay buffer (150 mM NaCl, 50 mM HEPES, Sigma Aldrich, Taufkirchen, Germany) containing 0.01% Casein, plates were blocked with 10 g/l BSA (Sigma Aldrich, Taufkirchen, Germany) at 37° C. and washed again. Thereafter, ligands were preincubated with 20 nM BPI in assay buffer containing 1 g/l BSA for 30 min and loaded onto the plates. Bound BPI was detected by murine anti-human BPI monoclonal antibody (Cat.-No. HM2042, Hycult Biotech, Uden, Netherlands) and HRP-conjugated rabbit anti-mouse IgG (Cat.-No. 315-035-048, Dianova, Hamburg, Germany). TMB (BD OptEIA™ TMB Substrate Reagent Set, BD Biosciences, Heidelberg, Germany) was used as a substrate for peroxidase. After addition of 1 N HCl, absorbance was measured at 450 nm. Absorbance indicates binding, the higher the absorbance the higher the binding of BPI to the coated well. Preincubation with a BPI ligand inhibits binding in a concentration-dependent manner.

[4] = tested on: bone-marrow derived dendritic cells; experiment: Microarray gene expression analysis in BMDCs; assay type: cell-based, C57BL/6J mice; conditions: 200 nM huBPI or muBPI, 4 h, microarray (FIG. 2A)
Method: All methods mentioned in this example were carried out as described in Example 1. BMDCs were seeded into a tissue-culture-treated 96-well plate in VLE-RPMI 1640 media (10% FCS, 10% Penicillin-Streptomycin, 50 μM β-Mercaptoethanol) and stimulated with 200 nM huBPI or muBPI. 4 h after stimulation, gene expression analysis was performed by microarray analysis (Affymetrix Mouse Gene 2.0 ST, FIGS. 2A and 2B).

Affinity of BPI to bLP (BPI [1]): within a nanomolar range
binding to BPI (MST) (BPI [2]): shown to bind to bLPs
Molecule: (R)-Pam3CSK4 [bLP]
stimulatory effect on the expression of IL-6 (IL-6 level), BPI vs Zymd vs bLP (BMDCs): similar

Molecule: ODN 1826
binding of BPI to plate-bound biotinylated ligand (BPI [3]; Streptavidin-coated plates, absorbance 450 nm, n=4 (FIG. 7A)): Binding of BPI to both LPS and CpG ODN was observed

Molecule: phosphatidyl-inositol lipoarabinomannan [PiLAM]
competition of BPI binding in biotinylated LPS coated plates (BPI [3]; LPS biotin 2 μg/ml, 20 nM BPI, n=3 (FIG. 8C)): binding is conserved

Molecule: phosphatidyl-inositol lipomannan [PiLM]
binding to BPI (MST) (BPI [2]): Binding of phosphatidyl-inositol lipomannan (PiLM) to BPI is shown

competition of BPI binding in ODN 1826 coated plates (BPI [3]; biotinylated ODN 1826, n=3 (FIG. 7B)): competitive binding was present
Molecule: polyinosinic: polycytidylic acid [Poly(I:C)]

B1: murine BPI: recombinant murine BPI, aa28-483 of muBPI, expressed in HEK293T cells (protein, listed as Mus musculus)
chain: TDPGFVAMISQKGLDFACQQGVVELQKELQAISVPDFSGVFKIKHLGKGSYEFYSMAVDGFHIPNPKIEMLPSDGLRVFIKDASIKINGKWMSRKNFLKAGGNFELSIQGVSISTDLILGSDSSGHITTICSNCDSHIDSVHIKISGSMLGWLIRLFHRKIETSLKNIIYKKICKIVRDSVSSKLQPYLKTLSVITRVDDVTSVDYSLLAPLTTTNQFLEGQLKGEFFWRGHRDPLPIHPPVMRFVPNGAYMVCMGISDYFFNTEVLAYQQSGTLKMTLGGQLLSNNGRFQLNTDFLRTFLPKVAKMFPSMGVQLLISAPVPVHLSIQPSGLSFNPKLETQAFVVLPNASLVPLFVLGMKTNASLEVDAEENRLVGEMKLGSRWLLELKESKFGPFKVEYLEDVINYLVSTLVLPKINERLRRGFPLPLPAGIRFSHFTFYPYQNFLLLEADLHLI
immunostimulatory effect on BMDCs (gene expression) [4]: shows an immunostimulatory effect on BMDCs

Source: patent US12527862B2, “Bactericidal/permeability increasing protein for use in a method of immunization, preferably as an adjuvant in a method of vaccination” (UNIVERSITÄT REGENSBURG, priority 2018, dated 2026)
